Reference: patent publication US20090124599A1, “Fungicidal Mixtures” (Basf Aktiengesellschaft, priority 2004, published 2009)

Tests used:
[1] = test system: Botrytis cinerea; experiment: Activity against the gray mold pathogen Botrytis cinerea in the microtiter test; type: cell-based; settings: single active, day 7 after inoculation, absorption 405 nm
[2] = test system: Phytophthora infestans; type: in vivo, Phytophthora infestans on tomato plants; settings: 16 ppm; single active; sprayed 5 days before infection, assessed after 6 days; control 90% infection

SMILES | Observed efficacy (%) ([1]; 0.063 ppm) | Observed efficacy (%) [2] | Observed efficacy (%) ([1]; 0.125 ppm) | Observed efficacy (%) ([1]; 0.25 ppm)
O=[N+]([O-])c1cc(C(F)(F)F)c(Cl)c([N+](=O)[O-])c1Nc1ncc(C(F)(F)F)cc1Cl [fluazinam (II-1), 3-chloro-N-[3-chloro-2,6-dinitro-4-(trifluoromethyl)phenyl]-5-(trifluoromethyl)-2-pyridineamine] | 35% | 22% |  | 
Cc1cc(C)nc(Nc2ccccc2)n1 [pyrimethanil (II-9)] |  |  | 70% | 
CO/C=C(/C(=O)OC)c1ccccc1CO/N=C(C)/C=C/c1ccc(Cl)cc1 [enestroburin (I), methyl 2-{2-[3-(4-chlorophenyl)-1-methylallylideneaminooxymethyl]phenyl}-3-methoxyacrylate] | 0% |  | 0% | 0%
